How the values were obtained:
[1] = system: cancer cell strains DU145, HT29, HCC2998, MKN7, MDA-MB-231, MCF-7; experiment: Intracellular and extracellular PpIX amount in cancer cell strains, ALA plus serial dilutions of inhibitor (Examples 1, 3, 4, 5); format: cell-based; conditions: in combination with 1 mM ALA; for extracellular PpIX amount (corrected with amount of protein) / intracellular PpIX amount (corrected with amount of protein): cultured 4 hours, compared to ALA alone, six cancer cell strains
Source text: Six types of cells strains were employed as cancer cell strains: […], large intestine cancer cell strains (HT29, HCC2998), stomach cancer cell strain (MKN7), and mammary gland cancer cell strains (MDA-MB-231, MCF-7). For the medium, RPMI 1640 (from Wako) supplemented with 5% inactivated fetal bovine serum (FBS, from Biowest) was employed (hereinafter referred to as RPMI medium). Two types of inhibitors are known to exist for dynamin: one is an inhibitor that targets the GAS domain, whereas the other is an inhibitor that targets the PH domain. Iminodyn22 (from abcam) was used as the inhibitor that targets the GAS domain. Further, OcTMAB (from abcam) was used as the inhibitor that targets the PH domain.
To 1 mg of OcTMAB was added 255 μL of dimethyl sulfoxide (DMSO, from Wako), and this was mixed to make an OcTMAB 10 mM stock solution. Further, to 1 mg of Iminodyn22 was added 208 μL of DMSO, and this was mixed to make an Iminodyn22 10 mM stock solution. The OcTMAB 10 mM stock solution was diluted with the RPMI medium to adjust to 16 μM. The Iminodyn22 10 mM stock solution was diluted with the RPMI medium to adjust to 40 μM. The OcTMAB and Iminodyn22 prepared were each serially diluted with the RPMI medium to create six serial dilutions. Each of these dynamin inhibitor-containing medium was mixed with an equal amount of the RPMI medium comprising 2 mM aminolevulinic acid hydrochloride salt (ALA) to prepare ALA/OcTMAB and ALA/Iminodyn22-containing mediums.
Each cancer cell strain was seeded in a 96-well plate (black with transparent bottom; from Corning) at a density of 1.25×10^4 cells/well (only MDA-MB-231 was seeded at 2.0×10^4 cells/well), and this was cultured overnight at 37° C. After the overnight culture, the culture supernatant was removed, 200 μL each of ALA/OcTMAB-containing medium or ALA/Iminodyn22-containing medium described above were added to each well, and this was cultured for 4 hours under a 37° C. condition. After 4 hours, 100 μL of each culture supernatant were transferred to another 96-well plate, and this was set as the extracellular PpIX measuring plate. The remaining culture supernatant was removed, each cell strain was washed once with phosphate buffered saline (PBS, from Wako), and then 100 μL per well of 1% dodecyl sodium sulfate (SDS, from Wako) aqueous solution was added to dissolve the cells, and this was set as the intracellular PpIX measuring plate. Protoporphyrin IX standard sample (PpIX, from Funakoshi Co., Ltd.) was dissolved in DMSO solution to create 1 mM PpIX stock solution. The 1 mM PpIX stock solution was diluted with each of 1% SDS solution and RPMI medium, and PpIX standard solutions with final concentrations of 0-1000 nM were prepared. The PpIX standard solutions prepared with 1% SDS were added to unused wells in the intracellular accumulation PpIX measuring plate, and the standard solutions prepared with the RPMI medium were added to unused portions of the extracellular export PpIX measuring plate at 100 μL each. The fluorescence intensity of the intracellular PpIX measuring plate and the extracellular PpIX measuring plate was measured with a microplate reader (infinite M200PRO; from TECAN) under the condition of excitation light at 405 nm and measurement wavelength at 635 nm. After measurement, a standard curve was created from the fluorescence intensity of the PpIX standard solutions, and the amount of PpIX in each well was calculated from the standard curve.
In order to correct the amount of PpIX measured by the above method with the amount of protein, the amount of protein contained in each sample of the intracellular PpIX measuring plate was measured. Pierce™ BCA Protein Assay Kit (from Thermo Fisher) was used for measuring the amount of protein. BCA reagent A and BCA reagent B were mixed at a proportion of 50:1 to prepare the BCA reaction solution. […]

[2] = cited from earlier work
[3] = system: cancer cell strains DU145, HT29, HCC2998, MKN7, MDA-MB-231, MCF-7; experiment: Intracellular and extracellular PpIX amount, combination use of OcTMAB and FTC with ALA (Example 2); format: cell-based; conditions: final concentration ALA 1 mM, OcTMAB 8 μM, FTC 10 μM, 4 hours; compared between combination use groups
Protocol: Six types of cells strains were employed as cancer cell strains: […], large intestine cancer cell strains (HT29, HCC2998), stomach cancer cell strain (MKN7), and mammary gland cancer cell strains (MDA-MB-231, MCF-7). Fumitremorgin C (FTC, from sigma) was dissolved in DMSO to create a 2 mM stock solution, and then adjusted to 40 μM with the RPMI medium. For OcTMAB, the 10 mM stock solution was adjusted with the RPMI medium to 32 μM. The 40 μM FTC-containing RPMI medium was added to an equal amount of 32 μM OcTMAB-containing medium to prepare a 16 μM OcTMAB/20 μM FTC-containing medium. Note that FTC is an inhibitor of ABCG2 (a transporter that extracellularly exports PpIX), and is known as a compound that has the effect of inhibiting extracellular export of PpIX.
Each cancer cell strain was seeded in a 96-well plate (black with transparent bottom) at a density of 1.25×10^4 cells/well (only MDA-MB-231 was seeded at 2.0×10^4 cells/well), and this was cultured overnight at 37/C. After the overnight culture, the culture supernatant was removed, 100 μL each of 2 mM ALA-containing RPMI medium was added to each well. […]
In order to correct the above PpIX amount measurement result with the amount of protein, the amount of protein in each sample for measuring the intracellular PpIX amount was measured. […]

Row | SMILES | inhibitor concentration at which the decrease of extracellular PpIX amount peaks ([1]; 4 hours) [µM] | inhibitor concentration at which the increase in the amount of PpIX accumulated peaks ([1]; 4 hours) [µM] | extracellular PpIX amount (corrected with amount of protein) [1] | intracellular PpIX amount (corrected with amount of protein) [1] | time until metabolized in vivo and excreted [2] [h] | extracellular PpIX amount (PpIX extracellular export) [3] | intracellular PpIX amount [3]
1 | O=c1[nH]c2ccccc2n1C1CCN(Cc2ccc(-c3nc4cc5nc[nH]c5cc4nc3-c3ccccc3)cc2)CC1 [Akt inhibitor VIII] | ~5 | ~5 | decrease of extracellular PpIX amount | increase in the amount of PpIX accumulated | – | – | –
2 | NCC(=O)CCC(=O)O [ALA, 5-aminolevulinic acid] | – | – | – | – | ≤ 48 | – | –
3 | CCCCCCCCCCCCCCCCCC[N+](C)(C)C.[Br-] [OcTMAB] | – | – | decrease of extracellular PpIX amount dependent on the concentration of OcTMAB | increase of intracellular PpIX amount dependent on the concentration of OcTMAB | – | effect similar to ETC for suppressing PpIX extracellular export | increased intracellular PpIX similar to or more than the ALA and ETC combination use group
4 | CCCCCCCCCCCCCCCCCC[N+](C)(C)CCN1C(=O)[C@@H]2[C@H](C1=O)[C@H]1CC[C@@H]2O1.[Br-] [RTIL13] | – | ~10 | decrease of extracellular PpIX amount dependent on the concentration of RTIL13 | increase in the amount of PpIX accumulated | – | – | –
5 | N=c1oc2c(O)c(O)ccc2cc1C(=O)NCCCNC(=O)c1cc2ccc(O)c(O)c2oc1=N [iminodyn22] | – | – | no change in the intracellular and extracellular PpIX amounts | no change in the intracellular and extracellular PpIX amounts | – | – | –
6 | CCCCCCCCCCCCCC[N+](C)(C)C.[Br-] [MiTMAB] | – | – | decrease of extracellular PpIX amount dependent on the concentration of MiTMAB | increase of intracellular PpIX amount dependent on the concentration of MiTMAB | – | – | –

From patent US20220370395A1, “ENHANCER OF PHOTODYNAMIC EFFECT IN ALA-PDT OR ALA-PDD” (SBI PHARMACEUTICALS CO., LTD., priority 2017, published 2022)
